Measured values: US8642649B2, “Orally dispersible tablet” (Takeda Pharmaceutical Company Limited, priority 2011, dated 2014)
≈ marks a conversion by molar mass, not a printed value. Blank lines part the entries; values can stand above or below the compound they belong to.

How the values were obtained:
[1] = test system: patients suffering from bipolar disorder; assay: acute depression in patients with bipolar disorder, double-blind randomized placebo-controlled trial (CGI-BP); assay type: in vivo, human; details: oral 8 mg once daily up to 8 weeks; value below 0 favors Compound A; 95% CI; N=9; P value=0.001
solubility of compound A = assay type: physicochemical; details: irrespective of pH
[2] = test system: patients suffering from bipolar disorder and in the remission phase; assay: maintenance of remission phase in patients with bipolar disorder, double-blind randomized placebo-controlled trial; assay type: in vivo, human; details: oral 8 mg once daily at bedtime
Description: Oral 8 mg formulation containing Compound A The test tablet was administered to a group of patients suffering from bipolar disorder and in the remission phase, once daily at bedtime for 6 months. A placebo was administered once daily at bedtime to a separate control group of patients in the remission phase of bipolar disorder for 6 months. This study was performed as a double-blind, randomized, placebo-controlled trial. The time from randomization to relapse over 6 months of treatment is determined by the Primary Investigator (PI) or defined by any of the following criteria: depression [Montgomery-Asberg Depression Rating Scale (MADRS) score ≧16]; mania/hypomania [Young Mania Rating Scale (YMRS) total score ≧14]; clinical global impressions bipolar version (CGI-BP); cumulative proportion of participants in each arm (placebo or Compound A) surviving without relapse [MADRS score ≧16 and YMRS total score ≧14], a medication initiation or change for manic/depressed/mixed symptoms, a hospitalization for manic/depressed/mixed symptoms and suicide risk or imminent risk of suicide.

[3] = randomized open-label pharmacokinetic study of oral-mucosal tablets versus oral 8 mg tablet; assay type: in vivo, human; details: for AUC(0-t) / Cmax: human serum, mean, N=6, measurement substance = label
Description: A randomized, open-label study to assess the pharmacokinetic parameters of an oral-mucosal tablet containing Compound A and its bioavailability relative to an oral 8 mg tablet containing Compound A was performed.
The test was conducted in two parts: (1) a parallel-group design to evaluate the pharmacokinetic parameters of 3 doses of Compound A (0.25, 0.5 and 1 mg) in oral-mucosal tablets and (2) an open-label, randomized 2-period crossover design to assess the relative bioavailability (pharmacokinetic profile) of the oral-mucosal 0.5 mg tablet compared with the bioavailability of the oral 8 mg tablet.
For part (1), a total of 18 subjects were randomly assigned to 1 of the 3 dosing regimens (i.e., 0.25, 0.5 and 1 mg; 6 subjects per dose) and each subject received a single dose of Compound A at the assigned dose.
For part (2), a total of 24 subjects were randomly assigned to take either the oral-mucosal 0.5 mg tablet or the oral 8 mg tablet at a single dose during each of the two periods.
To evaluate the studies, the pharmacokinetic parameters of Compound A and M-II were measured, including maximum observed serum concentration (Cmax) and area under the serum concentration-time curve from time 0 to the last quantifiable concentration (AUC(0-tlqc)).

[4] = blood kinetics of unchanged form and active metabolite M-II after oral or sublingual administration to human (cross-over, open-label); assay type: in vivo; details: for Cmax: serum, mean
Description: Oral preparation and preparation for oral-mucosal absorption were measured for blood kinetics of unchanged form and active metabolite M-II after oral or sublingual administration to human. The plasma concentration before administration, and 5 min, 10 min, 15 min, 20 min, 30 min, 45 min, 60 min, 90 min, 120 min, 180 min, 240 min, 360 min, 480 min, 600 min, 720 min and 1440 min after administration was measured.
To be specific, symbol/term and definition thereof in this table are explained in the following. The study was conducted by cross-over method under open-label condition.
AUC(0-tlqc): Area under the serum concentration-time curve from time 0 to time of the last quantifiable concentration (tlqc), calculated using the linear trapezoidal rule.
AUC(0-inf): Area under the serum concentration-time curve from time 0 to infinity, calculated as AUC(0-inf)=AUC(0-tlqc)+lqc/λz, where tlqc is the time of last quantifiable concentration and lqc is the last quantifiable concentration. λz: Terminal elimination rate constant, calculated as the negative of the slope of the log-linear regression of the natural logarithm concentration-time curve during the terminal phase. Cmax: Maximum observed serum concentration. Tmax: Time to reach Cmax. Active metaboline M-II: (2S)-2-Hydroxy-N-{2-[(8S)-1,6,7,8-tetrahydro-2H-indeno[5,4-b]furan-8-yl]ethyl}propanamide

[5] = single oral-mucosal tablet dose of Compound A 0.25 mg
[6] = single oral-mucosal tablet dose of Compound A 0.5 mg
[7] = single oral-mucosal tablet dose of Compound A 1 mg

SMILES: CCC(=O)NCC[C@@H]1CCc2ccc3c(c21)CCO3 [compound A, (S)—N-[2-(1,6,7,8-tetrahydro-2H-indeno[5,4-b]furan-8-yl)ethyl]propionamide]
CGI-BP severity for depression, longitudinal analysis of change in outcome [1]: −0.1 (−0.16 to −0.05)
solubility (solubility of compound A): ~200 µg/mL (≈ 771 µM)
Cumulative Proportion of Patients in each arm surviving without relapse ([2]; Baseline): 1.00
Cumulative Proportion of Patients in each arm surviving without relapse ([2]; Month 1): 0.929
Cumulative Proportion of Patients in each arm surviving without relapse ([2]; Month 2): 0.849
Cumulative Proportion of Patients in each arm surviving without relapse ([2]; Month 3): 0.716
Cumulative Proportion of Patients in each arm surviving without relapse ([2]; Month 4): 0.661
Cumulative Proportion of Patients in each arm surviving without relapse ([2]; Month 5): 0.632
Cumulative Proportion of Patients in each arm surviving without relapse ([2]; Month 6): 0.566
AUC(0-t) [3, 5]: 2.6 ng·h/mL
Cmax [3, 5]: 3.14 ng/mL
AUC(0-t) [3, 6]: 6.23 ng·h/mL
Cmax [3, 6]: 5.85 ng/mL
AUC(0-t) [3, 7]: 7.87 ng·h/mL
Cmax [3, 7]: 9.57 ng/mL
AUC(0-inf) unchanged/metabolite ratio ([4]; oral administration): 0.03
Cmax unchanged/metabolite ratio ([4]; oral administration): 0.07
Cmax ([4]; oral, dose 8 mg): 4.76 ± 5.19 ng/mL
Cmax ([4]; sublingual, dose 0.5 mg): 4.74 ng/mL
AUC(0-inf) unchanged/metabolite ratio ([4]; sublingual administration): 0.30
Cmax unchanged/metabolite ratio ([4]; sublingual administration): 1.13

AUC(0-t) [3, 5]: 4.64 ng·h/mL
Cmax [3, 5]: 1.85 ng/mL
AUC(0-t) [3, 6]: 10.5 ng·h/mL
Cmax [3, 6]: 3.74 ng/mL
AUC(0-t) [3, 7]: 20.2 ng·h/mL
Cmax [3, 7]: 7.68 ng/mL
fraction of exposure compared to the approved oral 8 mg tablet ([3]; oral-mucosal administration 0.5 mg): < 7%
SMILES: C[C@H](O)C(=O)NCC[C@@H]1CCc2ccc3c(c21)CCO3 [M-II, (2S)-2-Hydroxy-N-{2-[(8S)-1,6,7,8-tetrahydro-2H-indeno[5,4-b]furan-8-yl]ethyl}propanamide]
